One experiment deals with A549. The experiment is described as follows: Antiproliferative activity against human A549 cells measured after 72 hrs by CCK8 assay. The conditions noted are these: A549, 72 h. Format: functional, cell-based. Background: Formazan colour is commonly taken as a measure of viable cells.
The next experiment concerns HepG2. The experiment is described as follows: Antiproliferative activity against human HepG2 cells measured after 72 hrs by CCK8 assay. Format: functional, cell-based. The conditions noted are these: HepG2, 72 h.
The next experiment relates to CAL-148. The experiment is described as follows: Antiproliferative activity against human CAL148 cells measured after 72 hrs by CCK8 assay. It counts as functional, cell-based. The following applies: CAL-148, 72 h.
In the next experiment the target is Histone deacetylase 1 (Homo sapiens, UniProt Q13547). The experiment is described as follows: Inhibition of recombinant human full-length C-terminal FLAG-tagged HDAC1 expressed in baculovirus expression system using Ac-peptide-AMC as substrate preincubated for 15 mins followed by substrate addition by fluorescence assay.
Another experiment deals with CDK2/Cyclin A2 (Homo sapiens, UniProt P24941). The experiment is described as follows: Inhibition of wild-type human N-terminal GST-tagged CDK2/cycA2 expressed in Sf21 insect cells using FAM-labelled substrate preincubated for 10 mins followed by substrate addition and measured after 30 mins by fluorescence assay.

Consider 4 compounds from ChEMBL document CHEMBL4387776, “Discovery of novel 9H-purin derivatives as dual inhibitors of HDAC1 and CDK2” (Bioorg Med Chem Lett, 2019).

The term IC50 denotes the concentration needed to halve the response being measured.

Histone deacetylase 1, sequence (Q13547 whole entry): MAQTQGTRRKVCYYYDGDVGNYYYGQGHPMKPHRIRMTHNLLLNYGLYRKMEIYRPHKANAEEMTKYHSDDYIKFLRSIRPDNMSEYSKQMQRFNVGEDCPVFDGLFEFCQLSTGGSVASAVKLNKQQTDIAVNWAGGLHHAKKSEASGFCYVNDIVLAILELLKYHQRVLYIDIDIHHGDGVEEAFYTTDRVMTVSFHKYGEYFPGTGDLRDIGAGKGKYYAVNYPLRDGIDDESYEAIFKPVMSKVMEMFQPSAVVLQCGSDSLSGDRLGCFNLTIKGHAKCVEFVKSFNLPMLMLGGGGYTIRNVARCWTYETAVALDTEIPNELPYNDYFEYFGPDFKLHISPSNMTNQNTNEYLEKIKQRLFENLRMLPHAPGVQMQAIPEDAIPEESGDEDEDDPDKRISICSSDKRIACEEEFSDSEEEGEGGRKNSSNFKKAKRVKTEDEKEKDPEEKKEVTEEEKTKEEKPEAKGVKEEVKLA

As to `Cc1[nH]c2ccccc2c1CCNCc1ccc(/C=C/C(=O)NO)cc1` [PANOBINOSTAT], the IC50 in the experiment on A549 is 0.02 µM; with HepG2 it was less than 0.1 µM; with CAL-148, less than 0.1 µM.
Take `CC(C)n1cnc2c(NCc3cccc(/C=C/C(=O)NO)c3)nc(N3CCOCC3)nc21`: the half-inhibitory concentration (IC50) in the experiment with A549 worked out at 1.26 µM; in the experiment on HepG2, 0.22 µM; at Histone deacetylase 1, 0.007 µM; at CDK2/Cyclin A2, 0.127 µM; in the experiment with CAL-148, 0.39 µM.
For the compound `CC[C@H](CO)Nc1nc(NCc2ccccc2)c2ncn(C(C)C)c2n1` [SELICICLIB], the IC50 in the experiment with A549 is greater than 10 µM; in the experiment with HepG2, 15.8 µM; in the experiment with CAL-148, greater than 10 µM.
On to `CCn1cnc2c(NCc3cccc(/C=C/C(=O)NO)c3)nc(N3CCOCC3)nc21`, for which the half-inhibitory concentration (IC50) in the experiment with A549 amounted to 1.49 µM; in the experiment with HepG2, 0.77 µM; at Histone deacetylase 1, 0.0058 µM; on CDK2/Cyclin A2, 0.056 µM; in the experiment with CAL-148, 1.14 µM.
